Measured values published in patent publication US20190002436A1, “RESPIRATORY SYNCYTIAL VIRUS INHIBITORS” (MEDIVIR AB, priority 2015, published 2019).
pEC50: −log10 of the molar value.

tested on: RSV (Long); assay: RSV cytopathic effect (CPE)-based viral replication assay; format: cell-based, respiratory syncytial virus (RSV); conditions: human respiratory syncytial virus, HEp-2, 72 h, HEp-2 cells infected with RSV Long at MOI 0.015; 3 days at 37° C.; cell viability by CellTiter-Glo luminescence; read-out: EC50 (nm)
Experimental: Example A: RSV Cytopathic Effect
Compounds of the invention are initially tested in a cytopathic effect (CPE)-based viral replication assay using immortalized cells and a laboratory strain of RSV (Long). This assay evaluates the ability of a compound to inhibit viral replication.
Assay plates are prepared by seeding 2,500 HEp-2 cells (ATCC) per well of a 384-well black clear-bottom plate (Greiner Bio-One) in 20 μL of assay media (defined as DMEM supplemented with 2% heat-inactivated fetal bovine serum and 1% Penicillin/Streptomycin). Assay plates are incubated overnight at 37° C. in an incubator containing 5% CO2. The following day, a 10-point serial dilution of test compound is prepared in DMSO. Compounds are subsequently diluted with assay media and 20 μL of diluted compound (containing 1.5% DMSO) is transferred to an assay plate for evaluation of antiviral activity.
For the CPE assay, cells are infected at a Multiplicity of Infection (MOI) of 0.015 using 20 μL of RSV Long (ATCC) diluted in assay media. The DMSO concentration is constant throughout the assay plate, including the negative and positive controls. The assay plate is incubated for 3 days at 37° C. in an incubator containing 5% CO2. Cell viability is evaluated with the addition of 10 μL of CellTiter-Glo (ProMega). Luminescence is measured using an EnVision plate reader (Perkin Elmer). EC50 values are calculated using the raw data from the CPE assays.

SMILES | pEC50
NC1(C(=O)N2CC3(C2)C(=O)N(Cc2ncc4ccccc4c2-c2cncc(F)c2)c2ccccc23)CC1 [Example 94, 1-(1-aminocyclopropanecarbonyl)-1′-((4-(5-fluoropyridin-3-yl)isoquinolin-3-yl)methyl)spiro[azetidine-3,3′-indolin]-2′-one] | 7.70
N#Cc1ccc(-c2c(CN3C(=O)C4(CCN(C(=O)C5(N)CC5)CC4)c4ccncc43)ncc3ccccc23)cn1 [Example 65, 5-(3-((1-(1-aminocyclopropanecarbonyl)-2′-oxospiro[piperidine-4,3′-pyrrolo[2,3-c]pyridin]-1′(2′H)-yl)methyl)isoquinolin-4-yl)picolinonitrile] | 8.19
NCC(=O)N1CCC2(CC1)C(=O)N(Cc1ncc3ccccc3c1-c1cccnc1)c1cnccc12 [Example 143, 1-(2-aminoacetyl)-1′-((4-(pyridin-3-yl)isoquinolin-3-yl)methyl)spiro[piperidine-4,3′-pyrrolo[2,3-c]pyridin]-2′(1′H)-one] | 8.00
CS(=O)(=O)N1CCC2(CC1)C(=O)N(Cc1ncc3ccccc3c1-c1ccc(C3(N)CC3)nc1)c1cnccc12 [Example 2026] | 8.66
N#Cc1ccc(-c2c(CN3C(=O)C4(CN(C(=O)OCCO)C4)c4ccccc43)ncc3ccccc23)cn1 [Example 64, 2-Hydroxyethyl 1′-((4-(6-cyanopyridin-3-yl)isoquinolin-3-yl)methyl)-2′-oxospiro[azetidine-3,3′-indoline]-1-carboxylate] | 8.80
CS(=O)(=O)N1CCC2(CC1)C(=O)N(Cc1ncc3cc(F)ccc3c1-c1ccncc1)c1cnccc12 [Example 2035] | 8.55
COC(=O)N1CCC(n2c(=O)n(Cc3ncc4cc(F)ccc4c3CCCCO)c3cnccc32)CC1 [Example 7b, Methyl 4-(3-((7-fluoro-4-(4-hydroxybutyl)isoquinolin-3-yl)methyl)-2-oxo-2,3-dihydro-1H-imidazo[4,5-c]pyridin-1-yl)piperidine-1-carboxylate] | 7.96
NCC(N1CC2(C1)C(=O)N(Cc1ncc3ccccc3c1-c1cccnc1)c1ccccc12)C(F)(F)F (stereo not drawn) [Example 2037] | 9.09
NCCC(=O)N1CCC2(CC1)C(=O)N(Cc1ncc3ccccc3c1-c1cccnc1)c1cnccc12 [Example 141, 1-(3-aminopropanoyl)-1′-((4-(pyridin-3-yl)isoquinolin-3-yl)methyl)spiro[piperidine-4,3′-pyrrolo[2,3-c]pyridin]-2′(1′H)-one] | 7.96
N#Cc1ccc(-c2c(CN3c4ccccc4[C@]4(C[C@@H](O)C4)C3=O)ncc3ccccc23)cn1 [Example 83] | 8.05
NC(=O)N1CC2(C1)C(=O)N(Cc1ncc3ccccc3c1-c1cccnc1)c1ccccc12 [Example 131, 2′-Oxo-1′-((4-(pyridin-3-yl)isoquinolin-3-yl)methyl)spiro[azetidine-3,3′-indoline]-1-carboxamide] | 8.80
CS(=O)(=O)N1CC2(C1)C(=O)N(Cc1ncc3cc(Cl)ccc3c1-c1cccnc1)c1cnccc12 [Example 162, 1′-((7-chloro-4-(pyridin-3-yl)isoquinolin-3-yl)methyl)-1-(methylsulfonyl)spiro[azetidine-3,3′-pyrrolo[2,3-c]pyridin]-2′(1′H)-one] | 8.32
COC(=O)N1CCC(n2c(=O)n(Cc3ncc4cc(C#N)ccc4c3CCCCO)c3cnccc32)CC1 [Example 23b, methyl 4-(3-((7-cyano-4-(4-hydroxybutyl)isoquinolin-3-yl)methyl)-2-oxo-2,3-dihydro-1H-imidazo[4,5-c]pyridin-1-yl)piperidine-1-carboxylate] | 7.39
CC1(S(=O)(=O)N2CC3(C2)C(=O)N(Cc2ncc4ccccc4c2-c2ccc(C#N)nc2)c2ccccc23)CC1 [Example 61] | 8.36
CS(=O)(=O)N1CCC2(CC1)C(=O)N(Cc1ncc3ccccc3c1-c1ccc(C3(N)COC3)nc1)c1cnccc12 [Example 2038] | 7.96
CC(C)(C)NC(=O)N1CC2(C1)C(=O)N(Cc1ncc3ccccc3c1-c1ccc(C#N)nc1)c1ccccc12 [Example 81] | 8.85
COC(=O)N1CCC2(CC1)C(=O)N(Cc1ncc3cc(Cl)ccc3c1-c1cccnc1)c1cnccc12 [Example 164, Methyl 1′-((7-chloro-4-(pyridin-3-yl)isoquinolin-3-yl)methyl)-2′-oxo-1′,2′-dihydrospiro[piperidine-4,3′-pyrrolo[2,3-c]pyridine]-1-carboxylate] | 8.80
CS(=O)(=O)N1CCC2(CC1)C(=O)N(Cc1ncc3cc(Cl)ccc3c1-c1ccncc1)c1cnccc12 [Example 2009] | 9.46
COC(=O)N1CC2(C1)C(=O)N(Cc1ncc3ccccc3c1-c1cncs1)c1ccccc12 [Example 100, Methyl 2′-oxo-1′-((4-(thiazol-5-yl)isoquinolin-3-yl)methyl)spiro[azetidine-3,3′-indoline]-1-carboxylate] | 9.40

Now from value to compound:

pEC50 | SMILES
9.07 | CS(=O)(=O)N1CCC2(CC1)C(=O)N(Cc1ncc3ccccc3c1-c1ccc(F)nc1)c1cnccc12 [Example 110b, 1′-((4-(6-fluoropyridin-3-yl)isoquinolin-3-yl)methyl)-1-(methylsulfonyl)spiro[piperidine-4,3′-pyrrolo[2,3-c]pyridin]-2′(1′H)-one]
9.17 | COC(=O)N1CC2(C1)C(=O)N(Cc1ncc3ccccc3c1-c1cccnc1)c1ccccc12 [Example 92b, Methyl 2′-oxo-1′-((4-(pyridin-3-yl)isoquinolin-3-yl)methyl)spiro[azetidine-3,3′-indoline]-1-carboxylate]
8.59 | CC1(n2c(=O)n(Cc3ncc4ccccc4c3CCCCO)c3cnccc32)CC1 [Example 52b, 3-((4-(4-hydroxybutyl)isoquinolin-3-yl)methyl)-1-(1-methylcyclopropyl)-1H-imidazo[4,5-c]pyridin-2(3H)-one]
8.54 | COC(=O)N1CC2(C1)C(=O)N(Cc1ncc3cc(Cl)ccc3c1-c1cccnc1)c1cnccc12 [Example 161c, methyl 1′-((7-chloro-4-(pyridin-3-yl)isoquinolin-3-yl)methyl)-2′-oxo-1′,2′-dihydrospiro[azetidine-3,3′-pyrrolo[2,3-c]pyridine]-1-carboxylate]
5.60 | CN1CCN(Cc2ccc3c(CCCCO)c(Cn4c(=O)n(C5CC5)c5ccncc54)ncc3c2)CC1 [Example 43j, 1-Cyclopropyl-3-((4-(4-hydroxybutyl)-7-((4-methylpiperazin-1-yl)methyl)isoquinolin-3-yl)methyl)-1H-imidazo[4,5-c]pyridin-2(3H)-one]
< 9.00 | CC(C)(C)c1ccc(-c2c(Cn3c(=O)n(C4CC4)c4ccncc43)ncc3ccccc23)cc1 [Example 51d, 3-((4-(4-(tert-butyl)phenyl)isoquinolin-3-yl)methyl)-1-cyclopropyl-1H-imidazo[4,5-c]pyridin-2(3H)-one]
8.92 | CNC1(C(=O)N2CCC3(CC2)C(=O)N(Cc2ncc4ccccc4c2-c2ccc(C(N)=O)nc2)c2cnccc23)CC1 [Example 108b, 5-(3-((1-(1-(Methylamino)cyclopropanecarbonyl)-2′-oxospiro[piperidine-4,3′-pyrrolo[2,3-c]pyridin]-1′(2′H)-yl)methyl)isoquinolin-4-yl)picolinamide]

same assay, conditions: human respiratory syncytial virus, HEp-2, 72 h, read-out: EC50 (nm)

SMILES | pEC50
COC(=O)N1CCC2(CC1)C(=O)N(Cc1ncc3ccccc3c1-c1cccnc1)c1cnccc12 [Example 144, Methyl 2′-oxo-1′-((4-(pyridin-3-yl)isoquinolin-3-yl)methyl)-1′,2′-dihydrospiro[piperidine-4,3′-pyrrolo[2,3-c]pyridine]-1-carboxylate] | 8.96
